Experimental data taken from PubChem BioAssay AID2060889 (Molecular Pharmacology Branch, DTP, NCI, 2025).
pIC50: −log10 of the molar value. Values belong to the compound of their own block, whether it stands above or below them.

Tested on: LG0567-F671-PDC complex spheroids viability
Experiment: Anticancer human tumor LG0567-F671-PDC patient-derived lung adenocarcinoma cell line growth inhibition [RAS]
Settings: for pIC50: curve of first compound; for viability, T/C: stronger effect = lower value
Summary of the method: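 Tumour cells grown as complex spheroids with HUVEC endothelial cells and mesenchymal stem cells, treated with RAS pathway inhibitor combinations. Each agent spans half-log steps from near clinical Cmax, or 10 microM where Cmax is unknown.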

[1] = second compound 0.00316 µM, first compound 0.0316 µM
[2] = second compound 0.00316 µM, first compound 0.1 µM
[3] = second compound 0.00316 µM, first compound 0.316 µM
[4] = second compound 0.00316 µM, first compound 1 µM
[5] = second compound 0.00316 µM, first compound 3.16 µM
[6] = second compound 0.00316 µM, first compound 10 µM
[7] = second compound 0.01 µM, first compound 0.0316 µM
[8] = second compound 0.01 µM, first compound 0.1 µM
[9] = second compound 0.01 µM, first compound 0.316 µM
[10] = second compound 0.01 µM, first compound 1 µM
[11] = second compound 0.01 µM, first compound 3.16 µM
[12] = second compound 0.01 µM, first compound 10 µM
[13] = second compound 0.0316 µM, first compound 0.0316 µM
[14] = second compound 0.0316 µM, first compound 0.1 µM
[15] = second compound 0.0316 µM, first compound 0.316 µM
[16] = second compound 0.0316 µM, first compound 1 µM
[17] = second compound 0.0316 µM, first compound 3.16 µM
[18] = second compound 0.0316 µM, first compound 10 µM
[19] = second compound 0.1 µM, first compound 0.0316 µM
[20] = second compound 0.1 µM, first compound 0.1 µM
[21] = second compound 0.1 µM, first compound 0.316 µM
[22] = second compound 0.1 µM, first compound 1 µM
[23] = second compound 0.1 µM, first compound 3.16 µM
[24] = second compound 0.1 µM, first compound 10 µM
[25] = second compound 0.316 µM, first compound 0.0316 µM
[26] = second compound 0.316 µM, first compound 0.1 µM
[27] = second compound 0.316 µM, first compound 0.316 µM
[28] = second compound 0.316 µM, first compound 1 µM
[29] = second compound 0.316 µM, first compound 3.16 µM
[30] = second compound 0.316 µM, first compound 10 µM
[31] = second compound 1 µM, first compound 0.0316 µM
[32] = second compound 1 µM, first compound 0.1 µM
[33] = second compound 1 µM, first compound 0.316 µM
[34] = second compound 1 µM, first compound 1 µM
[35] = second compound 1 µM, first compound 3.16 µM
[36] = second compound 1 µM, first compound 10 µM
[37] = second compound 3.16 µM, first compound 0.0316 µM
[38] = second compound 3.16 µM, first compound 0.1 µM
[39] = second compound 3.16 µM, first compound 0.316 µM
[40] = second compound 3.16 µM, first compound 1 µM
[41] = second compound 10 µM, first compound 0.0316 µM
[42] = second compound 10 µM, first compound 0.1 µM
[43] = second compound 10 µM, first compound 0.316 µM
[44] = second compound 10 µM, first compound 1 µM
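Further: spheroids exposed to compound for seven days before readout.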
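Wherever pIC50 is given: luminescence signal used as a proxy for viable cells.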

SMILES: CC(C)NCC(C(=O)N1CCN(c2ncnc3c2C(C)CC3O)CC1)c1ccc(Cl)cc1 (stereo not given) + C#Cc1c(F)ccc2cc(O)cc(-c3ncc4c(N5CC6CCC(C5)N6)nc(OCC56CCCN5CC(F)C6)nc4c3F)c12
- pIC50 (second compound 0.0316 µM): < 5.00
- pIC50 (second compound 0.1 µM): < 5.00
- pIC50 (second compound 0.316 µM): 7.21
- pIC50 (second compound 1 µM): > 7.50
- pIC50 (second compound 3.16 µM): > 7.50
- pIC50 (second compound 10 µM): > 7.50
- viability, T/C [13]: 93.5%
- viability, T/C [14]: 88.3%
- viability, T/C [15]: 72%
- viability, T/C [16]: 60.1%
- viability, T/C [17]: 63.5%
- viability, T/C [18]: 55%
- viability, T/C [19]: 84.2%
- viability, T/C [20]: 66%
- viability, T/C [21]: 70.6%
- viability, T/C [22]: 51.3%
- viability, T/C [23]: 59.3%
- viability, T/C [24]: 56.4%
- viability, T/C [25]: 50.3%
- viability, T/C [26]: 50.1%
- viability, T/C [27]: 54.7%
- viability, T/C [28]: 35.9%
- viability, T/C [29]: 47%
- viability, T/C [30]: 51.6%
- viability, T/C [31]: 35.4%
- viability, T/C [32]: 29.8%
- viability, T/C [33]: 30%
- viability, T/C [34]: 28.1%
- viability, T/C [35]: 28.2%
- viability, T/C [36]: 31.2%
- viability, T/C [37]: 19.4%
- viability, T/C [38]: 17.9%
- viability, T/C [39]: 19.2%
- viability, T/C [40]: 13.9%
- viability, T/C (second compound 3.16 µM, first compound 3.16 µM): 14.9%
- viability, T/C (second compound 3.16 µM, first compound 10 µM): 13.4%
- viability, T/C [41]: 12.4%
- viability, T/C [42]: 12.7%
- viability, T/C [43]: 11.1%
- viability, T/C [44]: 9.42%
- viability, T/C (second compound 10 µM, first compound 3.16 µM): 8.58%
- viability, T/C (second compound 10 µM, first compound 10 µM): 5.74%

SMILES: C[C@@H](NC(=O)c1ncnc(N)c1Cl)c1ncc(C(=O)Nc2cc(C(F)(F)F)c(Cl)cn2)s1 + C=CC(=O)N1CCN(c2nc(OCC3CCCN3C)nc3c(F)c(-c4nc(N)cc(C)c4C(F)(F)F)c(Cl)cc23)C(C)C1
- pIC50 (second compound 0.00316 µM): > 7.50
- pIC50 (second compound 0.01 µM): > 7.50
- pIC50 (second compound 0.0316 µM): > 7.50
- pIC50 (second compound 0.1 µM): > 7.50
- pIC50 (second compound 0.316 µM): > 7.50
- pIC50 (second compound 1 µM): > 7.50
- viability, T/C [1]: 23%
- viability, T/C [2]: 21.9%
- viability, T/C [3]: 19.2%
- viability, T/C [4]: 25.3%
- viability, T/C [5]: 27.4%
- viability, T/C [6]: 22.3%
- viability, T/C [7]: 18.3%
- viability, T/C [8]: 16.7%
- viability, T/C [9]: 24.5%
- viability, T/C [10]: 19.2%
- viability, T/C [11]: 22.8%
- viability, T/C [12]: 20.4%
- viability, T/C [13]: 17.1%
- viability, T/C [14]: 17.3%
- viability, T/C [15]: 19.1%
- viability, T/C [16]: 19.3%
- viability, T/C [17]: 20.1%
- viability, T/C [18]: 18%
- viability, T/C [19]: 16.3%
- viability, T/C [20]: 14.9%
- viability, T/C [21]: 15.8%
- viability, T/C [22]: 18.3%
- viability, T/C [23]: 19%
- viability, T/C [24]: 18.5%
- viability, T/C [25]: 15.5%
- viability, T/C [26]: 16.1%
- viability, T/C [27]: 16.2%
- viability, T/C [28]: 18.5%
- viability, T/C [29]: 22.2%
- viability, T/C [30]: 23%
- viability, T/C [31]: 16.7%
- viability, T/C [32]: 17.4%
- viability, T/C [33]: 20.4%
- viability, T/C [34]: 17.2%
- viability, T/C [35]: 19.8%
- viability, T/C [36]: 20.8%

Further lines, with some results ahead:

- pIC50 (second compound 0.00316 µM): > 7.50
- pIC50 (second compound 0.01 µM): > 7.50
- pIC50 (second compound 0.0316 µM): > 7.50
- pIC50 (second compound 0.1 µM): > 7.50
- pIC50 (second compound 0.316 µM): > 7.50
- pIC50 (second compound 1 µM): > 7.50
SMILES: CC(Nc1ccc2c(c1)OCCn1cc(N3C(=O)OCC3C(F)F)nc1-2)C(N)=O (stereo not given) + C=CC(=O)N1CCN(c2nc(OCC3CCCN3C)nc3c(F)c(-c4nc(N)cc(C)c4C(F)(F)F)c(Cl)cc23)C(C)C1
- viability, T/C [1]: 15.2%
- viability, T/C [2]: 10.8%
- viability, T/C [3]: 10.1%
- viability, T/C [4]: 7.83%
- viability, T/C [5]: 7.01%
- viability, T/C [6]: 5.88%
- viability, T/C [7]: 12%
- viability, T/C [8]: 8.85%
- viability, T/C [9]: 8.39%
- viability, T/C [10]: 5.85%
- viability, T/C [11]: 5.99%
- viability, T/C [12]: 4.79%
- viability, T/C [13]: 10.2%
- viability, T/C [14]: 9.26%
- viability, T/C [15]: 7.97%
- viability, T/C [16]: 5.73%
- viability, T/C [17]: 5.76%
- viability, T/C [18]: 4.64%
- viability, T/C [19]: 13%
- viability, T/C [20]: 8.09%
- viability, T/C [21]: 6.28%
- viability, T/C [22]: 5.63%
- viability, T/C [23]: 5.99%
- viability, T/C [24]: 4.82%
- viability, T/C [25]: 10.5%
- viability, T/C [26]: 8.03%
- viability, T/C [27]: 7.03%
- viability, T/C [28]: 5.34%
- viability, T/C [29]: 6.43%
- viability, T/C [30]: 5.3%
- viability, T/C [31]: 11.4%
- viability, T/C [32]: 9.66%
- viability, T/C [33]: 6.71%
- viability, T/C [34]: 6.57%
- viability, T/C [35]: 7.01%
- viability, T/C [36]: 5.23%

- pIC50 (second compound 0.0316 µM): < 6.00
- pIC50 (second compound 0.1 µM): < 6.00
- pIC50 (second compound 0.316 µM): 7.88
- pIC50 (second compound 1 µM): > 8.50
- pIC50 (second compound 3.16 µM): > 8.50
- pIC50 (second compound 10 µM): > 8.50
SMILES: CCN1CCN(Cc2ccc(Nc3ncc(F)c(-c4cc(F)c5nc(C)n(C(C)C)c5c4)n3)nc2)CC1 + C#Cc1c(F)ccc2cc(O)cc(-c3ncc4c(N5CC6CCC(C5)N6)nc(OCC56CCCN5CC(F)C6)nc4c3F)c12
- viability, T/C (second compound 0.0316 µM, first compound 0.00316 µM): 83.8%
- viability, T/C (second compound 0.0316 µM, first compound 0.01 µM): 77.1%
- viability, T/C [13]: 72.8%
- viability, T/C [14]: 71.8%
- viability, T/C [15]: 61.1%
- viability, T/C [16]: 50.3%
- viability, T/C (second compound 0.1 µM, first compound 0.00316 µM): 75.9%
- viability, T/C (second compound 0.1 µM, first compound 0.01 µM): 75%
- viability, T/C [19]: 62.2%
- viability, T/C [20]: 59.1%
- viability, T/C [21]: 57.4%
- viability, T/C [22]: 50.7%
- viability, T/C (second compound 0.316 µM, first compound 0.00316 µM): 54.4%
- viability, T/C (second compound 0.316 µM, first compound 0.01 µM): 52.6%
- viability, T/C [25]: 46.8%
- viability, T/C [26]: 44.4%
- viability, T/C [27]: 36%
- viability, T/C [28]: 39.1%
- viability, T/C (second compound 1 µM, first compound 0.00316 µM): 37.8%
- viability, T/C (second compound 1 µM, first compound 0.01 µM): 34.5%
- viability, T/C [31]: 30.9%
- viability, T/C [32]: 27.1%
- viability, T/C [33]: 28.4%
- viability, T/C [34]: 27.3%
- viability, T/C (second compound 3.16 µM, first compound 0.00316 µM): 20.7%
- viability, T/C (second compound 3.16 µM, first compound 0.01 µM): 18.2%
- viability, T/C [37]: 20%
- viability, T/C [38]: 17%
- viability, T/C [39]: 19.7%
- viability, T/C [40]: 18.2%
- viability, T/C (second compound 10 µM, first compound 0.00316 µM): 11.4%
- viability, T/C (second compound 10 µM, first compound 0.01 µM): 10.8%
- viability, T/C [41]: 13.1%
- viability, T/C [42]: 10.7%
- viability, T/C [43]: 13.4%
- viability, T/C [44]: 16.4%

- IC50 (curve of compound): 26.9 nM [middle of 4 runs]
SMILES: CCc1c2c(nc3ccc(O)cc13)-c1cc3c(c(=O)n1C2)COC(=O)[C@]3(O)CC
- viability, T/C (compound 0.000949 µM): 93.3% [middle of 4 runs]
- viability, T/C (compound 0.003 µM): 79% [middle of 4 runs]
- viability, T/C (compound 0.00949 µM): 65.1% [middle of 4 runs]
- viability, T/C (compound 0.03 µM): 48.5% [middle of 4 runs]
- viability, T/C (compound 0.0949 µM): 27.1% [middle of 4 runs]
- viability, T/C (compound 0.3 µM): 7.59% [middle of 4 runs]
